# Reference: patent US20220040150A1, “I[…] ADMI[…] FOR DMT-ASSISTED PSYCHOTHERAPY” (Universitatsspital Basel, priority 2020, published 2022)
# Read-outs that look alike come from different tables or passages of the source.
# Legend:
# [1] = test system: healthy subjects with previous hallucinogen experience; settings: cited from earlier work
# 5-HT1A receptor = biological target: T1, 5-HT1A receptor (Homo sapiens, UniProt P08908); settings: sub-hallucinogenic dose of 0.1 mg/kg DMT, twelve subjects; cited from earlier work
# T1 construct: host or cells: human volunteers (in vivo)
# T1 sequence (P08908 1-422): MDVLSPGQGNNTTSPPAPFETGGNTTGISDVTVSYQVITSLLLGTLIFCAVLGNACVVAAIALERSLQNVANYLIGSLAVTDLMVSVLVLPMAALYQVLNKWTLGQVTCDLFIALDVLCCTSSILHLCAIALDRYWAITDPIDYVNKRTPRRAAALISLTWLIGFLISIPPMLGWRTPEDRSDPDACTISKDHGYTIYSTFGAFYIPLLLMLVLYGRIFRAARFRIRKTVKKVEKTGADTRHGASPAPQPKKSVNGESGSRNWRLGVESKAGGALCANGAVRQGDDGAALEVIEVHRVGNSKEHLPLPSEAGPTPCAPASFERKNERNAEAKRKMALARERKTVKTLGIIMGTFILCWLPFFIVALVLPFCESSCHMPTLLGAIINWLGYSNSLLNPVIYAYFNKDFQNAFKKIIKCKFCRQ
# 5-HT1 receptor = biological target: T2, 5-HT1 receptor (Homo sapiens, UniProt P08908); settings: in contrast to psilocybin; cited from earlier work
# T2 sequence (P08908 1-422): T1 sequence (P08908 1-422)
# [2] = 2 minutes after iv bolus of 14 mg (approximately 0.2 mg/kg); cited from earlier work
# [3] = 25 mg (0.3 mg/kg) bolus over 30 seconds; cited from earlier work
# [4] = biological target: T3, monoamine oxidase (MAO) A (Homo sapiens, UniProt P21397); settings: cited from earlier work
# T3 sequence (P21397 1-527): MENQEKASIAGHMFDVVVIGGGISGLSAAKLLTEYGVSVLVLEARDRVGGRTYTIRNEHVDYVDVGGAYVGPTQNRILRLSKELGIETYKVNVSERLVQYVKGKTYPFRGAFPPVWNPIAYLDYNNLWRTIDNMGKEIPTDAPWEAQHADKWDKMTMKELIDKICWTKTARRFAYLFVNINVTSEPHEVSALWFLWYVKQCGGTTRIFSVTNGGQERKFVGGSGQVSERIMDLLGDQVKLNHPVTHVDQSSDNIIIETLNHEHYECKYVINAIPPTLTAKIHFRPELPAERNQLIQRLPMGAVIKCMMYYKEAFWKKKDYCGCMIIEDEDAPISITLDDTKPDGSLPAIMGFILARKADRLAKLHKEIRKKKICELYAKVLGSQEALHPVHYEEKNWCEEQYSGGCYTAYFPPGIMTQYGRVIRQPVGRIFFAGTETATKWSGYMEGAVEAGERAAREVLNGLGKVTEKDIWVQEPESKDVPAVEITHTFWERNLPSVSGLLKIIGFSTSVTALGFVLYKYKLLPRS
# healthy subjects [5] = assay: Example 1 clinical study: 5D-ASC scale
# healthy subjects [6] = assay: Example 1 clinical study: blood pressure and heart rate; settings: perfusion with or without bolus
smiles,measurement,setting,value
"CN(C)CCc1c[nH]c2ccccc12 [DMT, N,N-dimethyltryptamine]",threshold dose for hallucinogenic effects,[1]; iv bolus,0.2 mg/kg
same,time to peak of effects after injection,[1]; iv bolus,≤ 2 min
same,time within which effects resolved,[1]; iv bolus,20 to 30 min
same,hallucinogenic effect,"[1]; lower doses (0.05, 0.1 mg/kg) iv bolus",not hallucinogenic
same,hallucinogenic effect,[1]; two higher doses of 0.2 and 0.4 mg/kg iv bolus,fully hallucinogenic
same,enhancement of DMT effects by pindolol pre-treatment,5-HT1A receptor,two to three times
same,affinity to the 5-HT1 receptor,5-HT1 receptor,greater affinity
same,DMT blood concentrations,[2],approximately 56 ng/mL
same,effect site concentration (simulated),[3],over 100 ng/mL
same,initial plasma concentration spike (simulated),[3],over 200 ng/mL
same,metabolism by monoamine oxidase (MAO) A,[4],rapidly metabolized
same,Anxiety (5D-ASC),healthy subjects [5]; bolus and perfusion,almost absent
same,5D-ASC scores,"healthy subjects [5]; bolus and perfusion compared with perfusion alone, mean in three subjects",more pronouncedly increased 5D-ASC scores
same,5D-ASC ratings,healthy subjects [5]; perfusion with placebo bolus,increased ratings of Oceanic Boundlessness and lower ratings in Anxious Ego-Dissolution and Visionary Restructuralization
same,effect on blood pressure and heart rate,healthy subjects [6],only moderately and transiently increased blood pressure
